Data from patent US5086045A, “Antitumor antibiotic” (Bristol-Myers Squibb Company, priority 1990, dated 1992).
Entries after “also recorded” stand apart in the source; their conditions may differ.

How the values were obtained:
P388 leukemia [1] = assay: In vivo antitumor activity, P388 leukemia implanted ip, drug ip; parameters: species or system mouse
Method: (§1) The in vivo antitumor activity of BMY-41339 was determined in the standard P388 mouse leukemia model. A summary of the experiments performed using BMY-41339 is provided below.
(§2) DBA/2 and (Balb/c × DBA/2)F1 (CDF1) hybrid mice were purchased from Charles River Breeding Co. (Wilmington, MA). They were provided food and water ad libitum.
(§3) The P388 murine ascites leukemia was maintained by weekly in vivo passage in DBA/2 mice.
(§4) Esperamicin A1 and BMY-41339 were dissolved in ethanol. Further dilutions were made with 0.9% NaCl (saline) until the ethanol concentration (v/v) was 10%. All administrations were made, therefore, in a 10% ethanol in saline vehicle. For ip injections, the concentration of compound was adjusted according to the average initial body weight of each group of mice to be injected such that the desired dose would be contained in a 0.5 ml injection volume. The same procedure was used for iv compound administration except the injection volume was 0.2 ml.
(§5) Antitumor experiments were initiated by implanting […] P388 leukemia cells either ip or iv into CDF1 mice. BMY-41339 and esperamicin A1 (included as a positive reference compound), were injected either ip in mice implanted ip with P388, or iv in mice implanted iv with P388 on Day 2 post-implant only Eight different dose levels of BMY-41339, at two-fold increments, were evaluated in each of the two experiments performed.
(§6) A % T/C value of ≥ 125 was considered indicative of activity in these models.

P388 leukemia [2] = assay: In vivo antitumor activity, P388 leukemia implanted iv, drug iv; parameters: species or system mouse;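 for % T/C: median survival time of treated over control mice times 100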;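 for T/C: median survival time of treated over control mice times 100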
Method: as §1, §2, §3, §4, §5, §6

a variety of bacteria = assay: Antimicrobial activity, serial two-fold agar dilution, overall; format: cell-based
Method: Antimicrobial activity of BMY-41339 was determined for a variety of bacteria by the serial two-fold agar dilution method.

[3] = Exp. 8102, iv, 0.025 mg/kg/dose
[4] = Exp. 8102, iv, same doses up to 3.2 μg/kg
[5] = Exp. 8109, iv, 0.025 mg/kg/dose

SMILES: C=C(OC)C(=O)Nc1cc(OC)c(OC)cc1C(=O)OC1CC(OC2C(=O)C(NC(=O)OC)=C3C(=CCSSSSC)C2(O)C#CC=CC#CC3OC2OC(C)C(NOC3CC(O)C(SC)C(C)O3)C(O)C2OC2CC(OC)C(NC(C)C)CO2)OC(C)C1O (centres unmarked) [BMY-41339]
- Avg. wt. change on day 6 (P388 leukemia [1]; Exp. 8109, ip, 3.2 mg/kg/dose): 0.7 grams
- Survivors on Day 5 (P388 leukemia [1]; Exp. 8109, ip, 3.2 mg/kg/dose): 6/6
- increases in lifespan (P388 leukemia [1]; Exp. 8109, ip, 0.5 -32 μg/kg): active increases
- activity against P388 leukemia (P388 leukemia [1]; conclusion, confirmed experimental results): active against P388 leukemia
- % T/C (P388 leukemia [2]; [3]): 100%
- Avg. wt. change on day 6 (P388 leukemia [2]; [3]): 0.4 grams
- Survivors on Day 5 (P388 leukemia [2]; [3]): 6/6
- % T/C (P388 leukemia [2]; Exp. 8102, iv, 0.05 mg/kg/dose): 100%
- Avg. wt. change on day 6 (P388 leukemia [2]; Exp. 8102, iv, 0.05 mg/kg/dose): 0.1 grams
- Survivors on Day 5 (P388 leukemia [2]; Exp. 8102, iv, 0.05 mg/kg/dose): 6/6
- % T/C (P388 leukemia [2]; Exp. 8102, iv, 0.1 mg/kg/dose): 106%
- Avg. wt. change on day 6 (P388 leukemia [2]; Exp. 8102, iv, 0.1 mg/kg/dose): 0.4 grams
- Survivors on Day 5 (P388 leukemia [2]; Exp. 8102, iv, 0.1 mg/kg/dose): 6/6
- % T/C (P388 leukemia [2]; Exp. 8102, iv, 0.2 mg/kg/dose): 100%
- Avg. wt. change on day 6 (P388 leukemia [2]; Exp. 8102, iv, 0.2 mg/kg/dose): -0.3 grams
- Survivors on Day 5 (P388 leukemia [2]; Exp. 8102, iv, 0.2 mg/kg/dose): 6/6
- % T/C (P388 leukemia [2]; Exp. 8102, iv, 0.4 mg/kg/dose): 100%
- Avg. wt. change on day 6 (P388 leukemia [2]; Exp. 8102, iv, 0.4 mg/kg/dose): -0.4 grams
- Survivors on Day 5 (P388 leukemia [2]; Exp. 8102, iv, 0.4 mg/kg/dose): 6/6
- % T/C (P388 leukemia [2]; Exp. 8102, iv, 0.8 mg/kg/dose): 100%
- Avg. wt. change on day 6 (P388 leukemia [2]; Exp. 8102, iv, 0.8 mg/kg/dose): -0.3 grams
- Survivors on Day 5 (P388 leukemia [2]; Exp. 8102, iv, 0.8 mg/kg/dose): 6/6
- % T/C (P388 leukemia [2]; Exp. 8102, iv, 1.6 mg/kg/dose): 100%
- Avg. wt. change on day 6 (P388 leukemia [2]; Exp. 8102, iv, 1.6 mg/kg/dose): -0.1 grams
- Survivors on Day 5 (P388 leukemia [2]; Exp. 8102, iv, 1.6 mg/kg/dose): 6/6
- % T/C (P388 leukemia [2]; Exp. 8102, iv, 3.2 mg/kg/dose): 113%
- Avg. wt. change on day 6 (P388 leukemia [2]; Exp. 8102, iv, 3.2 mg/kg/dose): -0.2 grams
- Survivors on Day 5 (P388 leukemia [2]; Exp. 8102, iv, 3.2 mg/kg/dose): 6/6
- effectiveness versus iv-implanted leukemia (P388 leukemia [2]; [4]): not effective
- maximum tolerated dose reached (P388 leukemia [2]; [4]): no indication of having reached a maximum tolerated dose
- T/C (P388 leukemia [2]; Exp. 8109, iv, 16 μg/kg): 139%
- % T/C (P388 leukemia [2]; [5]): 100%
- Avg. wt. change on day 6 (P388 leukemia [2]; [5]): 0.4 grams
- Survivors on Day 5 (P388 leukemia [2]; [5]): 6/6
- T/C (P388 leukemia [2]; Exp. 8109, iv, 32 μg/kg): 156%
- % T/C (P388 leukemia [2]; Exp. 8109, iv, 0.05 mg/kg/dose): 100%
- Avg. wt. change on day 6 (P388 leukemia [2]; Exp. 8109, iv, 0.05 mg/kg/dose): 0.1 grams
- Survivors on Day 5 (P388 leukemia [2]; Exp. 8109, iv, 0.05 mg/kg/dose): 6/6
- % T/C (P388 leukemia [2]; Exp. 8109, iv, 0.1 mg/kg/dose): 106%
- Avg. wt. change on day 6 (P388 leukemia [2]; Exp. 8109, iv, 0.1 mg/kg/dose): 0.4 grams
- Survivors on Day 5 (P388 leukemia [2]; Exp. 8109, iv, 0.1 mg/kg/dose): 6/6
- % T/C (P388 leukemia [2]; Exp. 8109, iv, 0.2 mg/kg/dose): 100%
- Avg. wt. change on day 6 (P388 leukemia [2]; Exp. 8109, iv, 0.2 mg/kg/dose): -0.3 grams
- Survivors on Day 5 (P388 leukemia [2]; Exp. 8109, iv, 0.2 mg/kg/dose): 6/6
- % T/C (P388 leukemia [2]; Exp. 8109, iv, 0.4 mg/kg/dose): 100%
- Avg. wt. change on day 6 (P388 leukemia [2]; Exp. 8109, iv, 0.4 mg/kg/dose): -0.4 grams
- Survivors on Day 5 (P388 leukemia [2]; Exp. 8109, iv, 0.4 mg/kg/dose): 6/6
- % T/C (P388 leukemia [2]; Exp. 8109, iv, 0.8 mg/kg/dose): 100%
- Avg. wt. change on day 6 (P388 leukemia [2]; Exp. 8109, iv, 0.8 mg/kg/dose): -0.3 grams
- Survivors on Day 5 (P388 leukemia [2]; Exp. 8109, iv, 0.8 mg/kg/dose): 6/6
- % T/C (P388 leukemia [2]; Exp. 8109, iv, 1.6 mg/kg/dose): 100%
- Avg. wt. change on day 6 (P388 leukemia [2]; Exp. 8109, iv, 1.6 mg/kg/dose): -0.1 grams
- Survivors on Day 5 (P388 leukemia [2]; Exp. 8109, iv, 1.6 mg/kg/dose): 6/6
- % T/C (P388 leukemia [2]; Exp. 8109, iv, 3.2 mg/kg/dose): 113%
- Avg. wt. change on day 6 (P388 leukemia [2]; Exp. 8109, iv, 3.2 mg/kg/dose): -0.2 grams
- Survivors on Day 5 (P388 leukemia [2]; Exp. 8109, iv, 3.2 mg/kg/dose): 6/6
- increases in lifespan (P388 leukemia [2]; Exp. 8109, iv, at two dose levels evaluated): active increases
- activity against disseminated iv implanted P388 leukemia (P388 leukemia [2]; conclusion, when adequate dosage was administered): active against the disseminated iv implanted P388 leukemia model
- antibacterial activity spectrum (a variety of bacteria): broad spectrum of antibacterial activity; also recorded: antimicrobial activity against a broad spectrum of bacteria
